In BindingDB's records for doi:10.1111/j.1432-1033.1991.tb16455.x (Georg-August-University, 1991):
Square brackets hold non-standard residues; d marks the D form. Peptide text beside a SMILES is read from it. ξ: configuration not given here. Ile(3ξ) = CCC(C)[C@H](N)C(=O)O

Target: T1, Pituitary adenylate cyclase-activating polypeptide (Rattus norvegicus, UniProt P13589)
T1 sequence (P13589 whole entry): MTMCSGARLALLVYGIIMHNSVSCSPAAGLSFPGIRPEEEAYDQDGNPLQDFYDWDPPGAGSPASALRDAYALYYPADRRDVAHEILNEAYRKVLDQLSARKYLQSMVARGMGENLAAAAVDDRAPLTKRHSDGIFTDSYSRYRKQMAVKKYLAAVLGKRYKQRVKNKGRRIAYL

Compound	Ki [nM]
Nc1nc2c(ncn2[C@@H]2O[C@H](COP(=O)(O)OP(=O)(O)OP(=O)(O)O)C(O)C2O)c(=O)[nH]1 (stereo partly specified) [+ 1 mM GTP]	600
CC[C@H](C)[C@H](NC(=O)[C@H](CO)NC(=O)[C@H](CC(N)=O)NC(=O)[C@H](CC(C)C)NC(=O)[C@H](Cc1ccc(O)cc1)NC(=O)[C@H](CCCCN)NC(=O)[C@H](CCCCN)NC(=O)[C@@H](NC(=O)[C@H](C)NC(=O)[C@H](CCSC)NC(=O)[C@H](CCC(N)=O)NC(=O)[C@H](CCCCN)NC(=O)[C@H](CCCN=C(N)N)NC(=O)[C@H](CC(C)C)NC(=O)[C@H](CCCN=C(N)N)NC(=O)[C@@H](NC(=O)[C@H](Cc1ccc(O)cc1)NC(=O)[C@H](CC(N)=O)NC(=O)[C@H](CC(=O)O)NC(=O)[C@@H](NC(=O)[C@H](Cc1ccccc1)NC(=O)[C@@H](NC(=O)[C@H](C)NC(=O)[C@H](CC(=O)O)NC(=O)[C@H](CO)NC(=O)[C@@H](N)Cc1cnc[nH]1)C(C)C)[C@@H](C)O)[C@@H](C)O)C(C)C)C(=O)N[C@@H](CC(C)C)C(=O)N[C@@H](CC(N)=O)C(=O)O [CAS_37221-79-7]	1000
Nc1nc2c(ncn2C2OC(COP(=O)(O)OP(=O)(O)OP(=O)(O)S)C(O)C2O)c(=O)[nH]1 (stereo unspecified) [CAS_444121]	40
Nc1nc2c(ncn2[C@H]2O[C@@H](COP(=O)(O)O)[C@H](O)[C@@H]2O)c(=O)[nH]1 [NSC_6804]	> 10000
Nc1nc2c(ncn2C2OC(COP(O)(=S)OP(=O)(O)O)C(O)C2O)c(=O)[nH]1 (stereo unspecified) [NSC_196042]	340
CC[C@H](C)[C@H](NC(=O)CNC(=O)[C@H](CC(=O)O)NC(=O)[C@H](CO)NC(=O)[C@@H](N)Cc1cnc[nH]1)C(=O)N[C@@H](Cc1ccccc1)C(=O)N[C@H](C(=O)N[C@@H](CC(=O)O)C(=O)N[C@@H](CO)C(=O)N[C@@H](Cc1ccc(O)cc1)C(=O)N[C@@H](CO)C(=O)N[C@@H](CCCN=C(N)N)C(=O)N[C@@H](Cc1ccc(O)cc1)C(=O)N[C@@H](CCCN=C(N)N)C(=O)N[C@@H](CCCCN)C(=O)N[C@@H](CCC(N)=O)C(=O)N[C@@H](CCSC)C(=O)N[C@@H](C)C(=O)N[C@H](C(=O)N[C@@H](CCCCN)C(=O)N[C@@H](CCCCN)C(=O)N[C@@H](Cc1ccc(O)cc1)C(=O)N[C@@H](CC(C)C)C(N)=O)C(C)C)[C@@H](C)O [PACAP(1-23)]	1000
CCC(C)[C@H](NC(=O)CNC(=O)[C@@H](N)CC(=O)O)C(=O)N[C@@H](Cc1ccccc1)C(=O)N[C@H](C(=O)N[C@@H](CC(=O)O)C(=O)N[C@@H](CO)C(=O)N[C@@H](Cc1ccc(O)cc1)C(=O)N[C@@H](CO)C(=O)N[C@@H](CCCN=C(N)N)C(=O)N[C@@H](Cc1ccc(O)cc1)C(=O)N[C@@H](CCCN=C(N)N)C(=O)N[C@@H](CCCCN)C(=O)N[C@@H](CCC(N)=O)C(=O)N[C@@H](CCSC)C(=O)N[C@@H](C)C(=O)N[C@H](C(=O)N[C@@H](CCCCN)C(=O)N[C@@H](CCCCN)C(=O)N[C@@H](Cc1ccc(O)cc1)C(=O)N[C@@H](CC(C)C)C(=O)N[C@@H](C)C(=O)N[C@@H](C)C(N)=O)C(C)C)[C@@H](C)O (stereo partly specified) [PACAP(3-25)] (H-DG[Ile(3ξ)]FTDSYSRYRKQMAVKKYLAA-NH2)	1000

Compounds with a lower Ki, results first:

Ki [nM]	Compound
4.7	CC[C@H](C)[C@H](NC(=O)CNC(=O)[C@H](CCC(=O)O)NC(=O)[C@H](CO)NC(=O)[C@@H](N)Cc1cnc[nH]1)C(=O)N[C@@H](Cc1ccccc1)C(=O)N[C@H](C(=O)N[C@@H](CC(=O)O)C(=O)N[C@@H](CO)C(=O)N[C@@H](Cc1ccc(O)cc1)C(=O)N[C@@H](CO)C(=O)N[C@@H](CCCNC(=N)N)C(=O)N[C@@H](Cc1ccc(O)cc1)C(=O)N[C@@H](CCCNC(=N)N)C(=O)N[C@@H](CCCCN)C(=O)N[C@@H](CCC(N)=O)C(=O)N[C@@H](CCSC)C(=O)N[C@@H](C)C(=O)N[C@H](C(=O)N[C@@H](CCCCN)C(=O)N[C@@H](CCCCN)C(=O)N[C@@H](Cc1ccc(O)cc1)C(=O)N[C@@H](CC(C)C)C(=O)N[C@@H](C)C(=O)N[C@@H](C)C(=O)N[C@H](C(=O)N[C@@H](CC(C)C)C(N)=O)C(C)C)C(C)C)[C@@H](C)O [PACAP(1-27)]
6.4	CCC(C)[C@H](NC(=O)CNC(=O)[C@H](CC(=O)O)NC(=O)[C@H](CO)NC(=O)[C@@H](N)Cc1cnc[nH]1)C(=O)N[C@@H](Cc1ccccc1)C(=O)N[C@H](C(=O)N[C@@H](CC(=O)O)C(=O)N[C@@H](CO)C(=O)N[C@@H](Cc1ccc(O)cc1)C(=O)N[C@@H](CO)C(=O)N[C@@H](CCCN=C(N)N)C(=O)N[C@@H](Cc1ccc(O)cc1)C(=O)N[C@@H](CCCN=C(N)N)C(=O)N[C@@H](CCCCN)C(=O)N[C@@H](CCC(N)=O)C(=O)N[C@@H](CCSC)C(=O)N[C@@H](C)C(=O)N[C@H](C(=O)N[C@@H](CCCCN)C(=O)N[C@@H](CCCCN)C(=O)N[C@@H](Cc1ccc(O)cc1)C(=O)N[C@@H](CC(C)C)C(=O)N[C@@H](C)C(=O)N[C@@H](C)C(=O)N[C@H](C(=O)N[C@@H](CC(C)C)C(=O)NCC(=O)N[C@@H](CCCCN)C(=O)N[C@@H](CCCN=C(N)N)C(=O)N[C@@H](Cc1ccc(O)cc1)C(=O)N[C@@H](CCCCN)C(=O)N[C@@H](CCC(N)=O)C(=O)N[C@@H](CS)C(N)=O)C(C)C)C(C)C)[C@@H](C)O (stereo partly specified) [PACAP(1-33,Cys34)]
1.9	CC[C@H](C)[C@H](NC(=O)CNC(=O)[C@H](CC(=O)O)NC(=O)[C@H](CO)NC(=O)[C@@H](N)Cc1cnc[nH]1)C(=O)N[C@@H](Cc1ccccc1)C(=O)N[C@H](C(=O)N[C@@H](CC(=O)O)C(=O)N[C@@H](CO)C(=O)N[C@@H](Cc1ccc(O)cc1)C(=O)N[C@@H](CO)C(=O)N[C@@H](CCCNC(=N)N)C(=O)N[C@@H](Cc1ccc(O)cc1)C(=O)N[C@@H](CCCNC(=N)N)C(=O)N[C@@H](CCCCN)C(=O)N[C@@H](CCC(N)=O)C(=O)N[C@@H](CCSC)C(=O)N[C@@H](C)C(=O)N[C@H](C(=O)N[C@@H](CCCCN)C(=O)N[C@@H](CCCCN)C(=O)N[C@@H](Cc1ccc(O)cc1)C(=O)N[C@@H](CC(C)C)C(=O)N[C@@H](C)C(=O)N[C@@H](C)C(=O)N[C@H](C(=O)N[C@@H](CC(C)C)C(=O)NCC(=O)N[C@@H](CCCCN)C(=O)N[C@@H](CCCNC(=N)N)C(=O)N[C@@H](Cc1ccc(O)cc1)C(=O)N[C@@H](CCCCN)C(=O)N[C@@H](CCC(N)=O)C(=O)N[C@@H](CCCNC(=N)N)C(=O)N[C@H](C(=O)N[C@@H](CCCCN)C(=O)N[C@@H](CC(N)=O)C(=O)N[C@@H](CCCCN)C(N)=O)C(C)C)C(C)C)C(C)C)[C@@H](C)O [PACAP]
3.1	H-HSDGIFTDSYSRYRKQMAVKKYLNSILN-NH2 [PACAP(1-23),VIP(24-28)]
